{"source": "paper PMC6370995", "about": "“Phase I study of PF‐04895162, a Kv7 channel opener, reveals unexpected hepatotoxicity in healthy subjects, but not rats or monkeys: clinical evidence of disrupted bile acid homeostasis” (Pharmacology Research & Perspectives, 2019)", "key": {"[1]": {"system": "healthy subjects", "test": "Biomarkers of liver injury in residual plasma PK samples (miRNA122, total and fractionated bile acids)", "assay_type": "in vivo, human", "conditions": "300 mg BID", "protocol": "Methodology for the following in vitro assays and biomarker determinations were as follows: THLE/HepG2 72 hour cytotoxicity assays based on ATP depletion;14 mitochondrial functional assessment based on state 3/4 respiration determination in the presence of glutamate/malate15, 16 or fatty acid oxidation inhibition using palmitate;17 BSEP inhibition in vesicles using tritium labeled taurocholic acid (TCA);18 human hepatocyte imaging assay determination of cell loss, mitochondrial membrane permeability, glutathione content, and production of reactive oxygen species;19 miRNA‐122 determination using QuantiGene 2.0 miRNA;20 human multidrug resistance protein 3 inhibition/activation (MDR3, encoded by ABCB4) was determined at Biotranex based on biotransformation of d 9‐choline to d 9‐phosphatidylcholine in human hepatocytes;21 and fractionated bile acid determinations were conducted by LC‐MS/MS methodology.22 These various assays have been published in detail and used by us in previous investigative works.2, 3, 21 Examination of human sodium/taurocholate cotransporting polypeptide (NTCP, encoded by SLC10A1) was determined based on uptake of tritium labeled TCA in CHO cells and human multidrug resistance‐associated protein 3/4 (MRP3/4, encoded by ABCC3/4) transporter inhibition in vesicles obtained from HEK293 cells using tritium labeled estradiol 17 β‐D‐glucuronide and dehydroepiandrosterone sulfate as substrates, respectively.\nThree of eight treated healthy subjects consented for additional analyses of residual plasma PK samples for biomarkers of liver injury (e.g., miRNA122, total, and fractionated bile acids)."}, "[2]": {"system": "cynomolgus monkeys", "test": "9-Month Oral Toxicity Study in Cynomolgus Monkeys", "assay_type": "in vivo, cynomolgus monkey", "protocol": "(§1) A 28-day nasogastric toxicity study was conducted in cynomolgus monkeys at up to 100 mg/kg/day and a 9-month oral toxicity study with a 3-month interim sacrifice was conducted in cynomolgus monkeys at up to 100 mg/kg/day."}, "[3]": {"test": "9-Month Oral Toxicity Study in Cynomolgus Monkeys", "assay_type": "in vivo, cynomolgus monkey", "conditions": "cynomolgus monkey, plasma, oral, 100 mg/kg/day", "protocol": "as §1"}, "[4]": {"test": "HepG2 72 hour cytotoxicity assay based on ATP depletion", "assay_type": "cell-based", "conditions": "human, HepG2 cells; HepG2, after 72 hours", "from_the_text": "[…]"}, "[5]": {"system": "cynomolgus monkeys", "test": "Escalating Dose Range-Finding and Maximum Tolerated Dose Study in Cynomolgus Monkeys", "assay_type": "in vivo, cynomolgus monkey"}, "[6]": {"biological_target": "T1, BSEP (Homo sapiens, UniProt O95342)", "T1 construct": "host or cells: Hi5 insect cell membrane vesicles", "T1 sequence (O95342 whole entry)": "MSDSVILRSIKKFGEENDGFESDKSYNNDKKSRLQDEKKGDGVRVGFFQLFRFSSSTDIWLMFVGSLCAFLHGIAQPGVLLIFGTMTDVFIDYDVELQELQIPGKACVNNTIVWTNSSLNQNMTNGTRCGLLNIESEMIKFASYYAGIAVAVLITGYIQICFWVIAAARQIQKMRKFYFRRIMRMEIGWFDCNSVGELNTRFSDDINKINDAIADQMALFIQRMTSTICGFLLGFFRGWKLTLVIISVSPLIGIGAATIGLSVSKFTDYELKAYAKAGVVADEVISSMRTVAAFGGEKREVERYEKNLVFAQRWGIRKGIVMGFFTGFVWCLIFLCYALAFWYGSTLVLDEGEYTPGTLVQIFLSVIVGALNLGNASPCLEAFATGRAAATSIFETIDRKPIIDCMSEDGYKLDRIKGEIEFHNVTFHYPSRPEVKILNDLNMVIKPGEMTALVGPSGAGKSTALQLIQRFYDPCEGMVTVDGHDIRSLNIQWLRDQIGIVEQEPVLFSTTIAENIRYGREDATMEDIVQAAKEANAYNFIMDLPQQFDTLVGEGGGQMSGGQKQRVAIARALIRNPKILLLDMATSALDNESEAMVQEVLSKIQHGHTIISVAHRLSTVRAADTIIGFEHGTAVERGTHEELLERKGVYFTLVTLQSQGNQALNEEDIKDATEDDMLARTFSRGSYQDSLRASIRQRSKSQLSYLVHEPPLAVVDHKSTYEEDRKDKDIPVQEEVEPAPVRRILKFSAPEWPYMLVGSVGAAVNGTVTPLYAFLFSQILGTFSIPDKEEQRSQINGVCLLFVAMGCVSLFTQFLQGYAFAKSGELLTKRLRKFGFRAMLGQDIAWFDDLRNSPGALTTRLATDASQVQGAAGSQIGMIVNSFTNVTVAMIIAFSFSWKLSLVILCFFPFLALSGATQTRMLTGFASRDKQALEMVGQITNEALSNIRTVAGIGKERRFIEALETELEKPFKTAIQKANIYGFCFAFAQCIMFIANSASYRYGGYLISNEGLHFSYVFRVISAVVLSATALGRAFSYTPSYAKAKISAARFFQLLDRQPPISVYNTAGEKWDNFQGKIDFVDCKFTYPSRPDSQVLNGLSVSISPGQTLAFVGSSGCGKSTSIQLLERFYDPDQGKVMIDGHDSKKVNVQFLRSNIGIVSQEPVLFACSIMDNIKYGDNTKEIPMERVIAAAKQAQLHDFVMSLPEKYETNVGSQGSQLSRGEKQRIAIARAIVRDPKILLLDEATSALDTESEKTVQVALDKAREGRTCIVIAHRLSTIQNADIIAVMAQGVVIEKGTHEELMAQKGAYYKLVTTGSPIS", "test": "BSEP inhibition in vesicles using tritium labeled taurocholic acid", "assay_type": "biochemical", "from_the_text": "[…]"}, "[7]": {"system": "Sprague-Dawley rats", "test": "28-day Oral Gavage Toxicity and Toxicokinetic Study in Rats", "assay_type": "in vivo", "protocol": "In the longer-term studies Sprague-Dawley rats were administered PF-04895162 once daily for 28 days or 6 months at doses up to 100 mg/kg/day. […] The drug was well absorbed into the systemic circulation of male and female rats following oral administration for 6 months."}}, "note": "Read-outs that look alike come from different tables or passages of the source."}
{"smiles": "O=C(Cc1ccc(F)cc1)Nn1c(C2CC2)nc2cc(F)ccc2c1=O", "note": "[PF‐04895162, N‐(2‐cyclopropyl‐7‐fluoro‐4‐oxoquinazolin‐3(4H)‐yl)‐2‐(4‐fluorophenyl)ethanamide]", "values": [{"measurement": "plasma miRNA122, Subject 8", "setting": "[1]; Period 3", "value": "elevated (>ULN) by Day 5"}, {"measurement": "fasting total bile acid levels of treated subjects", "setting": "[1]; Period 3, normal range <10 μmol/L", "value": "within the normal range"}, {"measurement": "hydrophobicity index of serum bile acids, Subject 6", "setting": "[1]; Day 7, AUC 0-12 h", "value": 0.47}, {"measurement": "hydrophobicity index of serum bile acids, Subject 8", "setting": "[1]; Day 7, AUC 0-12 h", "value": 0.40}, {"measurement": "hydrophobicity index of serum bile acids, Subject 10", "setting": "[1]; Day 7, AUC 0-12 h", "value": 0.45}, {"measurement": "hematology, coagulation, clinical chemistry, macroscopic and microscopic pathology", "setting": "[2]; 9 months, up to 100 mg/kg/day", "value": "No effect of treatment"}, {"measurement": "body weights, body temperatures, hematology, coagulation, clinical chemistry, ophthalmoscopic, electrocardiographic examinations", "setting": "[2]; 10, 30 and 100 mg/kg/day", "value": "No effect of treatment"}, {"measurement": "liver weights", "setting": "[2]; males at 30 and 100 mg/kg/day, females at 100 mg/kg/day, after 9 months", "value": "increases in liver weights"}, {"measurement": "mortality", "setting": "[2]; one female at 100 mg/kg/day", "value": "found dead on Day 45"}, {"measurement": "clinical findings", "setting": "[2]; sporadically in a few males and females at 100 mg/kg/day", "value": "Gross tremors and distended abdomens"}, {"measurement": "Cmax", "setting": "[3]; both sexes, after 9 months, males and females, read-out: total Cmax", "value": "~29000", "unit": "ng/mL"}, {"measurement": "Cmax", "setting": "[3]; studies >1 month in duration, read-out: total Cmax concentrations in the monkey", "value": 81.6, "unit": "µM"}, {"measurement": "IC50 at 72 h", "setting": "[4]", "value": "~130", "unit": "µM"}, {"measurement": "gross findings at necropsy, organ weights, liver histopathology, Dosing Phase 1", "setting": "[5]; 25, 50, 100 and 200 mg/kg", "value": "no other apparent effects of treatment"}, {"measurement": "clinical signs, Dosing Phase 2", "setting": "[5]; morning following dosing at 200 mg/kg/day, all 4 treated monkeys", "value": "hyperactivity, ataxia, tremors, and dilated pupils"}, {"measurement": "clinical observation, Dosing Phase 1", "setting": "[5]; single escalating NG doses, most prevalently at 100 and 200 mg/kg", "value": "Post-dosing vomitus"}, {"measurement": "IC50", "setting": "[6]; Hi5 vesicles, N = 4, geometric mean", "value": 106, "unit": "µM"}, {"measurement": "ratio of systemic Cmax to BSEP vesicle IC50", "setting": "[6]; initially (single dose)", "value": 0.12, "unit": "x"}, {"measurement": "few feces, incidence", "setting": "[7]; 100 mg/kg, females", "value": "6/15"}, {"measurement": "head tremors, incidence", "setting": "[7]; 100 mg/kg, females", "value": "2/15"}, {"measurement": "rough haircoat, incidence", "setting": "[7]; 100 mg/kg, females", "value": "4/15"}, {"measurement": "clear oral discharge, incidence", "setting": "[7]; 100 mg/kg, males", "value": "2/15"}, {"measurement": "microscopic findings in the liver", "setting": "[7]; 100 mg/kg/day for 28 days", "value": "No treatment-related microscopic findings"}, {"measurement": "body temperature", "setting": "[7]; 3, 30, 100 mg/kg, 28 days", "value": "no apparent treatment-related effect"}, {"measurement": "clinical pathology data", "setting": "[7]; 3, 30, 100 mg/kg, 28 days", "value": "no apparent treatment-related effects"}, {"measurement": "gross pathology and mean organ weights", "setting": "[7]; 3, 30, 100 mg/kg, 28 days", "value": "no obvious treatment-related gross pathology findings or mean organ weight changes"}, {"measurement": "mortality", "setting": "[7]; 3, 30, 100 mg/kg, 28 days", "value": "no mortality"}, {"measurement": "liver weights", "setting": "[7]; 28 days, up to 100 mg/kg/day", "value": "Increased liver weights"}, {"measurement": "Day 28 mean body weight", "setting": "[7]; females, 3 mg/kg", "value": "101 % of control"}, {"measurement": "Weeks 1-4 food consumption", "setting": "[7]; females, 3 mg/kg", "value": "101 % of control"}, {"measurement": "Mean liver weight", "setting": "[7]; females, 3 mg/kg (cell cut, unit not shown)", "value": 111}, {"measurement": "Day 28 mean body weight", "setting": "[7]; females, 30 mg/kg", "value": "97 % of control"}, {"measurement": "Weeks 1-4 food consumption", "setting": "[7]; females, 30 mg/kg", "value": "97 % of control"}, {"measurement": "Mean liver weight", "setting": "[7]; females, 30 mg/kg (cell cut, unit not shown)", "value": 106}, {"measurement": "Day 28 mean body weight", "setting": "[7]; females, 100 mg/kg", "value": "95 % of control"}, {"measurement": "Weeks 1-4 food consumption", "setting": "[7]; females, 100 mg/kg", "value": "88 % of control"}, {"measurement": "Day 28 mean body weight", "setting": "[7]; males, 3 mg/kg", "value": "100 % of the mean control weight"}, {"measurement": "Weeks 1-4 food consumption", "setting": "[7]; males, 3 mg/kg", "value": "99 % of the mean control food consumption"}, {"measurement": "Day 28 mean body weight", "setting": "[7]; males, 30 mg/kg", "value": "92 % of the mean control weight"}, {"measurement": "Weeks 1-4 food consumption", "setting": "[7]; males, 30 mg/kg", "value": "95 % of the mean control food consumption"}, {"measurement": "Day 28 mean body weight", "setting": "[7]; males, 100 mg/kg", "value": "90 % of the mean control weight"}, {"measurement": "Weeks 1-4 food consumption", "setting": "[7]; males, 100 mg/kg", "value": "87 % of the mean control food consumption"}, {"measurement": "transaminases", "setting": "[7]; once daily for 28 days, up to 100 mg/kg/day", "value": "No transaminase elevations"}]}
